In patent publication US8507445B2, “Compositions and methods of use of targeting peptides for diagnosis and therapy of human cancer” (Board of Regents, The University of Texas System, priority 2002, dated 2013):
Entries after “also recorded” stand apart in the source; their conditions may differ.

Experiments:
[1] = test system: prostate; assay: In vivo phage display in a human patient, tripeptide motif analysis; details: motifs in peptides isolated from prostate, compared with unselected phage library
Description: A large-scale preparation of a CX7C (C, cysteine; X, any amino acid residue) phage display random peptide library was optimized to create the highest possible insert diversity (Pasqualini et al., 2000). The diversity of the library was about 2×10^8 and its final titer was about 10^12 transducing units (TU)/ml. For biopanning with human subjects, use of a large-scale phage display library (diversity about 2×10^8) is advantageous compared to the smaller scale libraries used in mouse studies. Short-term intravenous infusion of the phage library (a total dose of 10^14 phage TU suspended in 100 ml of saline) into the patient was followed by multiple representative tissue biopsies. Prostate and liver samples were obtained by needle biopsy under ultrasonographic guidance. Skin, fat tissue, and skeletal muscle samples were obtained by surgical excision. Bone marrow needle aspirates and core biopsies were also obtained. Histopathological diagnosis was determined by examination of frozen sections processed from tissues obtained at the bedside.
Triplicate samples were processed for host bacterial infection, phage recovery, and histopathological analysis. In brief, tissues were weighed, ground with a glass Dounce homogenizer, suspended in 1 ml of Dulbecco Modified Eagle's medium (DMEM) containing proteinase inhibitors (DMEM-prin; 1 mM PMSF, 20 μg/ml aprotinin, and 1 μg/ml leupeptin), vortexed, and washed three times with DMEM-prin. The human tissue homogenates were incubated with 1 ml of host bacteria (log phase E. coli K91kan; OD600˜2). Aliquots of the bacterial culture were plated onto Luria-Bertani agar plates containing 40 μg/ml tetracycline and 100 μg/ml of kanamycin. Plates were incubated overnight at 37° C. Bacterial colonies were processed for sequencing of phage inserts recovered from each tissue and from unselected phage library. Human samples were handled with universal blood and body fluid precautions.
A high-throughput character pattern recognition program (M.D. Anderson Cancer Center, Biostatistics, Houston, Tex.) was developed to automate the analysis of the peptide motifs derived from phage screenings. […]
In order to identify the motifs that were enriched in the screening, the count for each tripeptide motif within each tissue was compared with the count for that tripeptide motif within the unselected library. Starting from a CX7C peptide insert, counts were recorded for all overlapping interior tripeptide motifs, subject only to reflection and single-voting restrictions. […] The significance of association of a given allocation of counts was assessed by Fisher's exact test (one-tailed). […]

[2] = test system: normal prostate; assay: Phage overlay assay on human tissue sections; assay type: binding
Description: To test the tissue specificity of the IL-11 peptide mimic, a phage overlay assay was developed to evaluate receptor-ligand interactions in tissue sections, using the motif RRAGGS (SEQ ID NO:34) (Arap et al., Nature Med. 8:121-127, 2002).

[3] = test system: adipose tissue; assay: Validation of adipose homing phage in vivo; design: species or system obese mice; details: mouse
Description: A substractive phage display protocol (see Example 8 below) was used to isolate fat targeting peptides from a genetically obese mouse (Zhang et al., Nature, 372:425-432, 1994; Pelleymounter et al., Science 269:540-543, 1994). Phage that had been subjected to biopanning in obese mice were post-cleared in a normal mouse. The fat-targeting peptides isolated included TRNTGNI (SEQ ID NO:72), FDGQDRS (SEQ ID NO:73); WGPKRL (SEQ ID NO:74); WGESRL (SEQ ID NO:75); VMGSVTG (SEQ ID NO:76), KGGRAKD (SEQ ID NO:77), RGEVLWS (SEQ ID NO:78), TREVHRS (SEQ ID NO:79) and HGQGVRP (SEQ ID NO:80).
The fat homing clones selected were: FA—KGGRAKD (SEQ ID NO:77), FC—RGEVLWS (SEQ ID NO:78), FE—TREVHRS (SEQ ID NO:79) and FX—VMGSVTG (SEQ ID NO:76).

[4] = test system: immunoglobulins from the serum of metastatic prostate cancer patients; assay: Biopanning of CX6C phage library on IgGs from serum of prostate cancer patients A, B, C; assay type: binding, human; details: for share of the clones analyzed: second and third rounds, patient A, B or C that yielded the peptide; for share of the clones in round II / share of the clones in round III: patient C
Description: Sera was selected from patients diagnosed with androgen-dependent and androgen-independent prostate cancer. A CX6C peptide library was screened against this pool of IgGs in a two-step procedure. First, the peptide library was pre-cleared against a pool of purified IgGs from normal serum samples using Protein G affinity chromatography. This step removed peptides from the phage display library that bound to immunoglobulins from patients without prostate cancer. Next, the pre-cleared peptide library was screened against the pool of purified IgGs from the serum of prostate cancer patients. This step selected peptides binding specifically to IgGs elicited against prostate cancer.
A 6-mer cyclic peptide (CX6C) phage display library was used for the biopanning. To select peptides specific to the serum antibodies of cancer patients, a pre-clearing stage was employed to remove non-specific peptides by pre-absorbing the peptide library onto purified IgGs from pooled normal serum (five healthy male individuals). The pre-cleared peptide library was screened onto the purified IgGs from the serum of prostate cancer patients. In brief, 10^9 transducing units (T.U.) of a CX6C cyclic peptide phage library were incubated with IgG antibodies from 50 μl of normal serum immobilized on 50 μl of protein G (Gibco BRL) for 1 hour at 4° C. This was followed by affinity selection on the immobilized IgG antibodies from prostate cancer patient serum for 2 hours at 4° C. Phage peptides specifically bound to IgGs elicited against prostate cancer were eluted with 100 μl of 0.1 M glycine buffer, pH 2.2, neutralized by the addition of 10 μl 1M Tris pH 9.0, and used to infect E. coli strain K91. Ten-fold serial dilutions of the infected solution were spread onto agar plates containing 40 μg/ml of tetracycline and grown overnight. Two hundred colonies were picked, amplified, and precipitated for a subsequent round of panning. A total of three rounds were performed. Individual phage clones were picked for PCR and the insert DNA was sequenced.

[5] = biological target: T1, IL-11Rα (Homo sapiens, UniProt Q14626); assay: Ligand-receptor binding assay in vitro with immobilized receptor
T1 sequence (Q14626 23-422): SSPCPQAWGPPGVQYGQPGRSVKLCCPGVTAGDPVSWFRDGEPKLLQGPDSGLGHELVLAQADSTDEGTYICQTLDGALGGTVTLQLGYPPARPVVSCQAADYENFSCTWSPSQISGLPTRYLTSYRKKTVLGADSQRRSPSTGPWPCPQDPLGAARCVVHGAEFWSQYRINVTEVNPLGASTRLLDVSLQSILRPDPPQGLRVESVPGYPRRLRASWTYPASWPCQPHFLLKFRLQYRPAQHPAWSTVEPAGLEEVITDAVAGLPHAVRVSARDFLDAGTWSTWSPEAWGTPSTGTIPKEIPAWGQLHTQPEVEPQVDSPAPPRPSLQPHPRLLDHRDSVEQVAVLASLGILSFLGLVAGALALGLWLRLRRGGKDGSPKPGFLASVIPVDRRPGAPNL
Method: Recombinant IL-11Rα vascular endothelial growth factor receptor-1 (VEGFR1) or leptin receptor (OB—R) were incubated with phage displaying the […] (SEQ ID NO:37) peptide. VEGFR1 was used as a representative vascular receptor, while OB—R was used because it shares a co-receptor with IL-11Rα. An unrelated phage clone displaying the peptide […] (SEQ ID NO:38) and insertless fd-tet phage were used as controls. […] Binding of […] (SEQ ID NO:37)-phage to IL-11Rα was specific, since it was inhibited by the native IL-11 ligand in a concentration-dependent manner (not shown). […] These observations with normal prostate tissues were followed by an examination of the expression of IL-11Rα in tumors, as discussed in the present Example.

[6] = test system: DU145 xenografts; assay: Phage localization by anti-phage staining of tissues; assay type: in vivo, nude mice; details: 24 hour circulation
Method: To determine the specificity of the prostate tumor targeting peptides, 10^9 phage carrying the targeting peptide sequences […] (SEQ ID NO:83) and […] (SEQ ID NO:84) were injected into nude mice bearing DU145 xenografts. After 24 hour circulation, tissue samples were obtained from tumor and control organs (kidney, brain, lung and spleen). Tissue samples were washed immediately in DMAM and fixed in 10% formalin for 48 hours at room temperature. Thin sections were stained for phage using anti-phage antibody (1:500 dilution) and detected using the DAKO LSAB+ system. […] This may be due to the tendency of spleen tissue to trap phage and other foreign particles in general as part of the reticuloendothelial system.

[7] = test system: serum antibodies of prostate cancer patients; assay: ELISA of serum reactivity against GST-fusion peptides; assay type: binding, human
Method: A 20 μg/ml solution of purified GST or GST-fusion proteins in 0.1M NaHCO3 was used to coat maxisorp multi-well plates (Nalge Nunc International Corporation) and incubated overnight at 4° C. The plates were blocked in a blocking buffer (4% milk, 2% casein, and 0.05% Tween-20) for 3-4 hours. A series of […] dilutions (1:100-1:1200) of sera from prostate cancer patients or healthy individuals was added and incubated for 1.5 hours and then washed five times with washing buffer (1% milk, 0.5% casein, and 0.025% Tween-20), followed by incubation at 4° C. with anti-human alkaline phosphatase-conjugated antibodies (Gibco). The plates were then washed six times in washing buffer and developed using p-NPP (Sigma) as a substrate. An automatic ELISA plate reader (BIO-TEK instrument) recorded the results at OD405 nm.
Probabilities of survival for each group were estimated using the Kaplan-Meier method. A log-rank test was implemented in order to detect significant differences between the groups. Reactivity was considered to be detected if the ratio between GST-peptide and GST alone was greater or equal to two by the ELISA data. A Log-Rank test was used to determine statistical differences between groups. A statistical CART analysis (Classification And Regression Tree) was used to identify the best cut-off point for determining reactivity to GRP78. In this method, the censored survival data were transformed into a single uncensored data value (the so-called “null martingale residual”), which was used as input into a standard regression tree algorithm. A cut-off point of 0.95 was determined by this program

Molecule: GER [tripeptide motif isolated from prostate]
- Motif Frequency [1]: 0.9

Molecule: AGG [tripeptide motif isolated from prostate]
- Motif Frequency [1]: 2.5

Molecule: RRAGGS [prostate-targeting motif, IL-11 peptide mimic]
- phage binding to tissue section [2]: specifically bound to the endothelium and epithelium of normal prostate

Molecule: KGGRAKD [FA]
- homing to adipose tissue compared to control fd-tet phage [3]: some elevation of homing to adipose tissue

Molecule: CKDRFERC
- share of the clones analyzed [4]: 100%

Molecule: RGEVLWS [FC]
- homing to adipose tissue compared to control fd-tet phage [3]: some elevation of homing to adipose tissue

Molecule: VMGSVTG [FX]
- homing to adipose tissue compared to control fd-tet phage [3]: some elevation of homing to adipose tissue; also recorded: several orders of magnitude higher adipose localization

Molecule: CNKTDKGC
- share of the clones in round II [4]: 16.7%
- share of the clones in round III [4]: 0%

Molecule: CRVDFSKGC [reference compound]
- phage binding to immobilized receptor ([5]; recombinant IL-11Rα): Neither of the control phage exhibited selective binding

Molecule: CNWTDKTC
- share of the clones in round II [4]: 33.3%
- share of the clones in round III [4]: 7%

Molecule: LGCMASMLREFEGATHACTQ
- anti-phage staining of control kidney, brain or lung [6]: No staining was observed
- anti-phage staining of normal spleen [6]: low level of anti-phage staining
- anti-phage staining of tumor [6]: very heavy staining

Molecule: TREVHRS [FE]
- homing to adipose tissue compared to control fd-tet phage [3]: some elevation of homing to adipose tissue

Molecule: EGR [tripeptide motif isolated from prostate]
- Motif Frequency [1]: 1.0

Molecule: CNITQKSC
- share of the clones in round II [4]: 33.3%
- share of the clones in round III [4]: 0%

Molecule: GVL [tripeptide motif isolated from prostate]
- Motif Frequency [1]: 2.3

Molecule: CHQKPWEC
- share of the clones analyzed [4]: 100%

Molecule: CNVSDKSC
- positive serum reactivity ([7]; 71 age-matched healthy men (control)): 7%
- positive serum reactivity ([7]; metastatic androgen-independent prostate cancer): 76%
- positive serum reactivity ([7]; organ-confined prostate cancer patients): 6%
- positive serum reactivity ([7]; patients with androgen-dependent tumors): 29%
- share of the clones analyzed [4]: 55%

B1: IL-11: native IL-11 ligand, cytokine (protein)
chain: PGPPPGPPRVSPDPRAELDSTVLLTRSLLADTRQLAAQLRDKFPADGDHNLDSLPTLAMSAGALGALQLPGVLTRLRADLLSYLRHVQWLRRAGGSSLKTLEPELGTLQARLDRLLRRLQLLMSRLALPQPPPDPPAPPLAPPSSAWGGIRAAHAILGGLHLTLDWAVRGLLLLKTRL
- inhibition of CGRRAGGSC-phage binding to IL-11Rα ([5]; concentration of about 0.1 nM): ~100%
